Patent US20240424113A1, “CONJUGATES COMPRISING ANTIFUNGALS AND HEAT SHOCK PROTEIN 90 (HSP90) INHIBITORS AND METHODS OF USE THEREOF” (Bright Angel Therapeutics Inc., priority 2021, published 2024)
Values after ≈ are worked out from the molar mass of the structure shown.

Columns and labels:
[1] = target: Hsp90 Nuclear Binding Domain (NBD) (Candida albicans (strain SC5314 / ATCC MYA-2876) (Yeast), UniProt P46598); experiment: Surface Plasmon Resonance (SPR) binding, C. albicans Hsp90 NBD; details: biotinylated Hsp90 NBD on streptavidin chip, 25° C., 1:1 binding model
Chain of Hsp90 Nuclear Binding Domain (NBD) (Candida albicans (strain SC5314 / ATCC MYA-2876) (Yeast), UniProt P46598) (P46598 1-218 limits assumed): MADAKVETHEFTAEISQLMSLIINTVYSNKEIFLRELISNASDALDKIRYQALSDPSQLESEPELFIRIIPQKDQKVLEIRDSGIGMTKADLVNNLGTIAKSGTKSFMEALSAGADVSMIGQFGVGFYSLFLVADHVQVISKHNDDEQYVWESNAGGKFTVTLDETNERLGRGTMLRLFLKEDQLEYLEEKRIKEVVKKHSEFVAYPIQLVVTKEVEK
Outline: (§1)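 Biacore S200 at 25° C; AviTag-biotinylated recombinant Hsp90 NBD captured on streptavidin chip at 2000-2500 RU. Compound dilution series run in HBS-P pH 7.4 with 2% DMSO at 40 μL/min, 60 s association and 600 s dissociation. Sensorgrams fitted to a 1:1 binding model.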

[2] = target: Hsp90 Nuclear Binding Domain (NBD) (Aspergillus fumigatus, UniProt P40292); experiment: Surface Plasmon Resonance (SPR) binding, A. fumigatus Hsp90 NBD; details: biotinylated Hsp90 NBD on streptavidin chip, 25° C., 1:1 binding model; NB undefined
Chain of Hsp90 Nuclear Binding Domain (NBD) (Aspergillus fumigatus, UniProt P40292) (P40292 whole entry, looked up, the tested form may be a part): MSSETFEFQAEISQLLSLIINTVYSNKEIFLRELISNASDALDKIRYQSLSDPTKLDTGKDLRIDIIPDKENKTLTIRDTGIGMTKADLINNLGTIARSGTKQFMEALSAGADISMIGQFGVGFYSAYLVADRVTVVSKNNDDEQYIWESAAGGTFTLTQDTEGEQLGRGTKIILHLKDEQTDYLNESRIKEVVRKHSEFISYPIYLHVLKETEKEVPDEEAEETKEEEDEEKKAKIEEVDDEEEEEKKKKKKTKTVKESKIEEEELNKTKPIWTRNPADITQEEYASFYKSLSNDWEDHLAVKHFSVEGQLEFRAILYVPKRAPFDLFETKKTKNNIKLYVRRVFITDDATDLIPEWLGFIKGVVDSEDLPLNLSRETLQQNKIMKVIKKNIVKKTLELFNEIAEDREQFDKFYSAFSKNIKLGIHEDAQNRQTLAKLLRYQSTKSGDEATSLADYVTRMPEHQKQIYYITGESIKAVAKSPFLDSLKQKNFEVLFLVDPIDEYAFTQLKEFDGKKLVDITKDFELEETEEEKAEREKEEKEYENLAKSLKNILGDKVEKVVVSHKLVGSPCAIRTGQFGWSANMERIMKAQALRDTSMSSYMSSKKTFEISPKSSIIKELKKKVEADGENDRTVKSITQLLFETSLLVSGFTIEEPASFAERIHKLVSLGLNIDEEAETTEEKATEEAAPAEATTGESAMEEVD
Outline: as §1

[3] = system: CaCl2; experiment: Antifungal sensitivity testing (broth microdilution MIC); assay type: cell-based; details: 96-well broth microdilution
Outline: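 Broth microdilution MIC per a modified published protocol; compounds dissolved in DMSO, fluconazole in water; duplicates in at least two independent experiments. Fungicidal activity checked by spotting MIC-plate cultures onto YPD agar, read after 24 h at 30° C.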

[4] = system: HepG2 cells; experiment: Mammalian cell toxicity (Cell Titer-Glo); assay type: cell-based
Procedure: Mammalian Cell Toxicity. HepG2 cells were seeded overnight at 500 cells/well in 384-well plate, then incubated with compounds (10-point concentration titration) for 48 h. Cell Titer-Glo® reagent ([…]) was added to each well and after 10-minute incubation at room temperature the luminescent signal was measured using an Envision plate reader (Perkin Elmer).

With `CC(O)c1c(C(=O)NC2CCN(CC(O)(Cn3cncn3)c3ccc(F)cc3F)CC2)sc2nc(N)c(=O)n(-c3ccc4ccn(-c5ccccc5)c4c3)c12` (stereo not shown) [Compound I-56, 3-amino-N-(1-(2-(2,4-difluorophenyl)-2-hydroxy-3-(1H-1,2,4-triazol-1-yl)propyl)piperidin-4-yl)-7-(1-hydroxyethyl)-2-oxo-1-(1-phenyl-1H-indol-6-yl)-1,2-dihydrothieno[2,3-b]pyrazine-6-carboxamide] the Kd [1] was 64.6 nM, the Kd [2] was 229 nM and the MIC50 ([3]; Table 4) was 3 µM (≈ 2.3 µg/mL). The MIC50 ([3]; Table 6) was 3 µM (≈ 2.3 µg/mL) and the “HepG2 MIC50” value ([4]; Table 6, 48 h incubation) was greater than 10 µM.
For `CC1CC(NCc2cc3c(nc(N)c(=O)n3-c3ccc4c(c3)N(c3ccccc3)CCO4)s2)CCN1CC(O)(Cn1cncn1)c1ccc(F)cc1F` (stereo not shown) [Compound I-138, 3-amino-6-(((1-(2-(2,4-difluorophenyl)-2-hydroxy-3-(1H-1,2,4-triazol-1-yl)propyl)-2-methylpiperidin-4-yl)amino)methyl)-1-(4-phenyl-3,4-dihydro-2H-benzo[b][1,4]oxazin-6-yl)thieno[2,3-b]pyrazin-2(1H)-one], the Kd [1] was 445 nM, the Kd [2] was 674 nM and the MIC50 ([3]; Table 4) was 2.3 µM (≈ 1.7 µg/mL). For the same compound, the MIC50 ([3]; Table 6) was 2.3 µM (≈ 1.7 µg/mL) and the “HepG2 MIC50” value ([4]; Table 6, 48 h incubation) was 7.9 µM.
In the case of `Nc1nc2sc(C(=O)NC[C@H]3CO[C@](Cn4cncn4)(c4ccc(F)cc4F)C3)cc2n(-c2ccc3c(c2)N(c2ccccc2)CCO3)c1=O` [Compound I-27, N-(((3S,5S)-5-((1H-1,2,4-triazol-1-yl)methyl)-5-(2,4-difluorophenyl)tetrahydrofuran-3-yl)methyl)-3-amino-2-oxo-1-(4-phenyl-3,4-dihydro-2H-benzo[b][1,4]oxazin-6-yl)-1,2-dihydrothieno[2,3-b]pyrazine-6-carboxamide], the Kd [1] is reported as 9.2 nM, the Kd [2] is reported as 13.4 nM and the MIC50 ([3]; Table 4) is reported as 2.5 µM (≈ 1.74 µg/mL). For the same compound, the MIC50 ([3]; Table 6) was 2.5 µM (≈ 1.74 µg/mL) and the “HepG2 MIC50” value ([4]; Table 6, 48 h incubation) was greater than 10 µM.
For `COC(=O)c1c(C(=O)NC2CCN(CC(O)(Cn3cncn3)c3ccc(F)cc3F)CC2)sc2nc(N)c(=O)n(-c3ccc4c(c3)N(c3ccccc3)CCO4)c12` (stereo not shown) [Compound I-55, methyl 3-amino-6-((1-(2-(2,4-difluorophenyl)-2-hydroxy-3-(1H-1,2,4-triazol-1-yl)propyl)piperidin-4-yl)carbamoyl)-2-oxo-1-(4-phenyl-3,4-dihydro-2H-benzo[b][1,4]oxazin-6-yl)-1,2-dihydrothieno[2,3-b]pyrazine-7-carboxylate], the Kd [1] was 318 nM, the Kd [2] was 314 nM and the MIC50 ([3]; Table 4) was 9 µM (≈ 7.18 µg/mL). The MIC50 ([3]; Table 6) was 9 µM (≈ 7.18 µg/mL) and the “HepG2 MIC50” value ([4]; Table 6, 48 h incubation) was greater than 10 µM.
Work on `CC1(NC(=O)c2cc3c(nc(N)c(=O)n3-c3ccc4c(c3)N(c3ccccc3)CCO4)s2)CCN(CC(O)(Cn2cncn2)c2ccc(F)cc2F)CC1` (stereo not shown) [Compound I-31, 3-amino-N-(1-(2-(2,4-difluorophenyl)-2-hydroxy-3-(1H-1,2,4-triazol-1-yl)propyl)-4-methylpiperidin-4-yl)-2-oxo-1-(4-phenyl-3,4-dihydro-2H-benzo[b][1,4]oxazin-6-yl)-1,2-dihydrothieno[2,3-b]pyrazine-6-carboxamide] yielded a Kd [1] of 0.3 nM, a Kd [2] of 2.3 nM and an MIC50 ([3]; Table 4) of 1 µM (≈ 0.754 µg/mL). For the same compound, the MIC50 ([3]; Table 6) was 1 µM (≈ 0.754 µg/mL), the “HepG2 MIC50” value ([4]; Table 5, 48 h incubation) was 4.6 µM and the “HepG2 MIC50” value ([4]; Table 6, 48 h incubation) was 4.6 µM.
`Nc1nc2sc(CNC3CCN(CC(=O)OCCC(O)(Cn4cncn4)c4ccc(F)cc4F)CC3)cc2n(-c2ccc3c(c2)N(c2ccccc2)CCO3)c1=O` (stereo not shown) [Compound I-136, 3-(2,4-difluorophenyl)-3-hydroxy-4-(1H-1,2,4-triazol-1-yl)butyl 2-(4-(((3-amino-2-oxo-1-(4-phenyl-3,4-dihydro-2H-benzo[b][1,4]oxazin-6-yl)-1,2-dihydrothieno[2,3-b]pyrazin-6-yl)methyl)amino)piperidin-1-yl)acetate] showed a Kd [1] of 271 nM, a Kd [2] of 529 nM and an MIC50 ([3]; Table 4) of 6.25 µM (≈ 4.99 µg/mL). For the same compound, the MIC50 ([3]; Table 6) was 6.25 µM (≈ 4.99 µg/mL) and the “HepG2 MIC50” value ([4]; Table 6, 48 h incubation) was 19.4 µM.
`Nc1nc2scc(C(=O)NC3CCN(CC(O)(Cn4cncn4)c4ccc(F)cc4F)CC3)c2n(-c2ccc3c(c2)N(c2ccccc2)CCO3)c1=O` (stereo not shown) [Compound I-18, 3-amino-N-(1-(2-(2,4-difluorophenyl)-2-hydroxy-3-(1H-1,2,4-triazol-1-yl)propyl)piperidin-4-yl)-2-oxo-1-(4-phenyl-3,4-dihydro-2H-benzo[b][1,4]oxazin-6-yl)-1,2-dihydrothieno[2,3-b]pyrazine-7-carboxamide] was tested, and the Kd [1] was 459 nM, the Kd [2] was 741 nM and the MIC50 ([3]; Table 4) was 20 µM (≈ 14.8 µg/mL). For the same compound, the MIC50 ([3]; Table 6) was 20 µM (≈ 14.8 µg/mL) and the “HepG2 MIC50” value ([4]; Table 6, 48 h incubation) was greater than 50 µM.
`Nc1nc2sc(CNCC3CCN(CC(O)(Cn4cncn4)c4ccc(F)cc4F)CC3)cc2n(-c2ccc3c(c2)N(c2ccccc2)CCO3)c1=O` (stereo not shown) [Compound I-67, 3-amino-6-((((1-(2-(2,4-difluorophenyl)-2-hydroxy-3-(1H-1,2,4-triazol-1-yl)propyl)piperidin-4-yl)methyl)amino)methyl)-1-(4-phenyl-3,4-dihydro-2H-benzo[b][1,4]oxazin-6-yl)thieno[2,3-b]pyrazin-2(1H)-one] was tested, and the Kd [1] was 402 nM, the Kd [2] was 503 nM and the MIC50 ([3]; Table 4) was 2.25 µM (≈ 1.66 µg/mL). For the same compound, the MIC50 ([3]; Table 6) was 2.25 µM (≈ 1.66 µg/mL) and the “HepG2 MIC50” value ([4]; Table 6, 48 h incubation) was 4.7 µM.
`Nc1nc2sc(-c3noc(C(=O)NN4CCN(CC(O)(Cn5cncn5)c5ccc(F)cc5F)CC4)n3)cc2n(-c2ccc3c(c2)N(c2ccccc2)CCO3)c1=O` (stereo not shown) [Compound I-54, 3-(3-amino-2-oxo-1-(4-phenyl-3,4-dihydro-2H-benzo[b][1,4]oxazin-6-yl)-1,2-dihydrothieno[2,3-b]pyrazin-6-yl)-N-(4-(2-(2,4-difluorophenyl)-2-hydroxy-3-(1H-1,2,4-triazol-1-yl)propyl)piperazin-1-yl)-1,2,4-oxadiazole-5-carboxamide] gave a Kd [1] of 73.5 nM, a Kd [2] of 339 nM and an MIC50 ([3]; Table 4) of 0.6 µM (≈ 0.485 µg/mL). The MIC50 ([3]; Table 6) was 0.6 µM (≈ 0.485 µg/mL), the “HepG2 MIC50” value ([4]; Table 5, 48 h incubation) was greater than 10 µM and the “HepG2 MIC50” value ([4]; Table 6, 48 h incubation) was greater than 10 µM.
In the case of `Nc1nc2sc(C(=O)NC3CCN(CC(O)(Cn4cncn4)c4ccc(F)cc4F)CC3)cc2n(-c2ccc3c(c2)N(c2ccccc2)CCO3)c1=O` (stereo not shown) [Compound I-4, 3-amino-N-(1-(2-(2,4-difluorophenyl)-2-hydroxy-3-(1H-1,2,4-triazol-1-yl)propyl)piperidin-4-yl)-2-oxo-1-(4-phenyl-3,4-dihydro-2H-benzo[b][1,4]oxazin-6-yl)-1,2-dihydrothieno[2,3-b]pyrazine-6-carboxamide], the Kd [1] is reported as 28 nM, the Kd [2] is reported as 113 nM and the MIC50 ([3]; Table 4) is reported as 0.75 µM (≈ 0.555 µg/mL). The MIC50 ([3]; Table 6) was 0.75 µM (≈ 0.555 µg/mL), the “HepG2 MIC50” value ([4]; Table 5, 48 h incubation) was greater than 10 µM and the “HepG2 MIC50” value ([4]; Table 6, 48 h incubation) was greater than 10 µM.
In the case of `Nc1nc2sc(CNCC3CCN(C[C@@](O)(Cn4cncn4)c4ccc(F)cc4F)CC3)cc2n(-c2ccc3c(c2)N(c2ccccc2)CCO3)c1=O` [Compound I-122, (R)-3-amino-6-((((1-(2-(2,4-difluorophenyl)-2-hydroxy-3-(1H-1,2,4-triazol-1-yl)propyl)piperidin-4-yl)methyl)amino)methyl)-1-(4-phenyl-3,4-dihydro-2H-benzo[b][1,4]oxazin-6-yl)thieno[2,3-b]pyrazin-2(1H)-one], the Kd [1] is reported as 1630 nM, the Kd [2] is reported as 1900 nM and the MIC50 ([3]; Table 4) is reported as 6.5 µM (≈ 4.81 µg/mL). For the same compound, the MIC50 ([3]; Table 6) was 6.5 µM (≈ 4.81 µg/mL) and the “HepG2 MIC50” value ([4]; Table 6, 48 h incubation) was 14.3 µM.
`Nc1nc2sc(CN3CCC(NCC(O)(Cn4cncn4)c4ccc(F)cc4F)CC3)cc2n(-c2ccc3c(c2)N(c2ccccc2)CCO3)c1=O` (stereo not shown) [Compound I-134, 3-amino-6-((4-((2-(2,4-difluorophenyl)-2-hydroxy-3-(1H-1,2,4-triazol-1-yl)propyl)amino)piperidin-1-yl)methyl)-1-(4-phenyl-3,4-dihydro-2H-benzo[b][1,4]oxazin-6-yl)thieno[2,3-b]pyrazin-2(1H)-one] gave a Kd [1] of 665 nM, a Kd [2] of 1050 nM and an MIC50 ([3]; Table 4) of 3.13 µM (≈ 2.27 µg/mL). The MIC50 ([3]; Table 6) was 3.13 µM (≈ 2.27 µg/mL) and the “HepG2 MIC50” value ([4]; Table 6, 48 h incubation) was 15 µM.
In the case of `Nc1nc2sc(C(=O)N[C@@H]3CCN(C[C@@](O)(Cn4cncn4)c4ccc(F)cc4F)C3)cc2n(-c2ccc3c(c2)N(c2ccccc2)CCO3)c1=O` [Compound I-11, 3-amino-N-((R)-1-((R)-2-(2,4-difluorophenyl)-2-hydroxy-3-(1H-1,2,4-triazol-1-yl)propyl)pyrrolidin-3-yl)-2-oxo-1-(4-phenyl-3,4-dihydro-2H-benzo[b][1,4]oxazin-6-yl)-1,2-dihydrothieno[2,3-b]pyrazine-6-carboxamide], the Kd [1] is reported as 0.8 nM, the Kd [2] is reported as 24.8 nM and the MIC50 ([3]; Table 4) is reported as 2.5 µM (≈ 1.81 µg/mL). The MIC50 ([3]; Table 6) was 2.5 µM (≈ 1.81 µg/mL) and the “HepG2 MIC50” value ([4]; Table 6, 48 h incubation) was 2.4 µM.
Compound `Nc1nc2sc(C(=O)NC3CCN(CC4COC(Cn5cncn5)(c5ccc(F)cc5F)C4)CC3)cc2n(-c2ccc3c(c2)N(c2ccccc2)CCO3)c1=O` (stereo not shown) [Compound I-32, N-(1-((5-((1H-1,2,4-triazol-1-yl)methyl)-5-(2,4-difluorophenyl)tetrahydrofuran-3-yl)methyl)piperidin-4-yl)-3-amino-2-oxo-1-(4-phenyl-3,4-dihydro-2H-benzo[b][1,4]oxazin-6-yl)-1,2-dihydrothieno[2,3-b]pyrazine-6-carboxamide] has a Kd [1] of 3.6 nM, a Kd [2] of 50.5 nM and an MIC50 ([3]; Table 4) of 2.5 µM (≈ 1.95 µg/mL). For the same compound, the MIC50 ([3]; Table 6) was 2.5 µM (≈ 1.95 µg/mL) and the “HepG2 MIC50” value ([4]; Table 6, 48 h incubation) was 8.2 µM.
